Measurements reported in patent US20050208031A1, “Inhibition of calcium-independent phospholipases A2beta or A2gamma inhibit hormone-induced differentiation of 3T3-L1 preadipocytes” (priority 2003, published 2005).

Experiments:
iPLA2 = assay: Phospholipase A2 (iPLA2) activity assay in day 8 3T3-L1 cell homogenates with radiolabelled POPC; assay type: biochemical; conditions: 10 μM BEL, 3 min preincubation, day 8 cell homogenate, FIG. 3B
Protocol: FIG. 3. Activities of PLA2 in 3T3-L1 cells during differentiation and their inhibition by BELs. 3T3-L1 cells were cultured and induced to differentiation as described in “Test Procedures.” At indicated differentiation stages, cell homogenates were prepared as described in “Test Procedures.” Phospholipase A2 activity was assessed by incubating 3T3-L1 cell protein (100-200 μg) with radiolabelled 1-palmitoyl-2-[1-^14C]-oleoyl-sn-glycerol-3-phosphocholine (POPC) (50 mCi/mmol, 5 μM final concentration, introduced by ethanol injection (2 μL)) in assay buffer (final conditions: 100 mM Tris-HCl, 4 mM EGTA, pH=7.2) at 37° C. for 30 min in a final volume of 200 μL. Reactions were quenched by addition of butanol (100 μL). 30 microliters of the organic phase was spotted on a Whatman silica plate which was developed with a nonpolar acidic mobile phase (100 mL of 70/30/1 petroleum ether/ethyl ether/acetic acid). Spots corresponding to fatty acids were scrapped into scintillation vials and radioactivity was quantified by scintillation spectrometry as described previously. A, iPLA2 activities of 3T3-L1 cells during differentiation. B, iPLA2 activities of homogenates of day 8 3T3-L1 cells after incubation at room temperature for 3 minutes in the absence or presence of 10 μM of (R)-BEL, (S)-BEL or racemic BEL.
On the day of the test, the media of 3T3-L1 cells at different stages of differentiation were removed. The cells were washed briefly with PBS and detached by incubation in trypsin-EDTA (0.25% w/v) at 37° C. for […]. The cells were washed again with 5 volumes of CMRL-1066, transferred to a 50 mL Falcon centrifuge tube and centrifuged for 5 min at 1700 rpm at 4° C. […] Briefly, phospholipase A2 activity was assessed by incubating 3T3-L1 cell protein (100-200 μg) with radiolabelled phosphatidylcholine, L-α-palmitoyl-2-oleoyl [oleoyl-1-^14C] […] Spots corresponding to fatty acids were scrapped into scintillation vials and radioactivity was quantified by scintillation spectrometry as described previously^(32). […]

iPLA2γ = molecular target: T1, iPLA2γ (Homo sapiens, UniProt Q9NP80); conditions: previously demonstrated; cited from earlier work
T1 sequence (Q9NP80 1-782): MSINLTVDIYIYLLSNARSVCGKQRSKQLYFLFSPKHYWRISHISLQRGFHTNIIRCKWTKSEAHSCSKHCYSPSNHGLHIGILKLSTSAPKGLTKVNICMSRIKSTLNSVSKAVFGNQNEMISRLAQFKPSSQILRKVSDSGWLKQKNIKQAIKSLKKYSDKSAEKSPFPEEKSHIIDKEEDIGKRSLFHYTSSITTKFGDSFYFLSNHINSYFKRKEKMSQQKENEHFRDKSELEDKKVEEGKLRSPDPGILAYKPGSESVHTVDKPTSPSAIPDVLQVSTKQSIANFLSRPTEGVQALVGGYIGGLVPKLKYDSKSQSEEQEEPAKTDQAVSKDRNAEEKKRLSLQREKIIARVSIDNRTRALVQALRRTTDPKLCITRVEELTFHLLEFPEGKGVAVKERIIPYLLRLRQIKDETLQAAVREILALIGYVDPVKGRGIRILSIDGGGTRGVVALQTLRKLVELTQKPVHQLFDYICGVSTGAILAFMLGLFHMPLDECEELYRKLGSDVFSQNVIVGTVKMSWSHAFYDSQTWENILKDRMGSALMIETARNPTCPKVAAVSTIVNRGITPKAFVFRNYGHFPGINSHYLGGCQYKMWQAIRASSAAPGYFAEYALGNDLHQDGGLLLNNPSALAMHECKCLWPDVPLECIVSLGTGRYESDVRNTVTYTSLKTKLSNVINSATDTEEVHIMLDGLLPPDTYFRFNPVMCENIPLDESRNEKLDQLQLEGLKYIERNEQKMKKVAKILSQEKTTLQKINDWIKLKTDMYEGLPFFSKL

3T3-L1 cells = assay: TAG accumulation during hormone-induced differentiation of 3T3-L1 cells (ESI/MS); assay type: cell-based; conditions: 5, 10 μM BEL for 4 days, day 8, ESI/MS, FIG. 6
Protocol: FIG. 5. Effects of siRNAs directed against iPLA2β or iPLA2γ on TAG accumulation during 3T3-L1 cell differentiation. 3T3-L1 cells were cultured and transfected with 20 nM negative control siRNA, siRNA directed against iPLA2β, or siRNA directed against iPLA2γ prior to induction to differentiation as described in “Test Procedures.” 3T3-L1 cells were grown to day 8 and the cell monolayer was washed with ice-cold PBS and scraped into 1 mL 50 mM LiCl. The lipids were extracted by the method of Bligh-Dyer^(33) in the presence of an internal standard (Tril7:0TAG, 200 nmol/mg protein). Mass spectral analysis of TAG was performed by ESI/MS as described in “Test Procedures.” ESI/MS spectra of TAG of day 8 3T3-L1 cells with pretreatment of negative control siRNA (A), siRNA directed against iPLA2β (B) or siRNA directed against iPLA2γ (C) were shown. The results of TAG quantification (D) represent means ±S.E.M. of at least three independent cultures.
FIG. 6. Effects of BELs on TAG accumulation during hormone-induced differentiation of 3T3-L1 cells. 3T3-L1 cells on two days post confluent were washed three times with DMEM, incubated at 37° C. for 20 min in DMEM with 0, 5, 10 μM racemic, R-, or S-BEL. The cells were induced to differentiate as described in “Test Procedures” in the presence of indicated concentrations of BELs for 4 days. […]

iPLA2β = molecular target: T2, iPLA2β (Homo sapiens, UniProt O60733); conditions: previously demonstrated; cited from earlier work
T2 sequence (O60733 1-806): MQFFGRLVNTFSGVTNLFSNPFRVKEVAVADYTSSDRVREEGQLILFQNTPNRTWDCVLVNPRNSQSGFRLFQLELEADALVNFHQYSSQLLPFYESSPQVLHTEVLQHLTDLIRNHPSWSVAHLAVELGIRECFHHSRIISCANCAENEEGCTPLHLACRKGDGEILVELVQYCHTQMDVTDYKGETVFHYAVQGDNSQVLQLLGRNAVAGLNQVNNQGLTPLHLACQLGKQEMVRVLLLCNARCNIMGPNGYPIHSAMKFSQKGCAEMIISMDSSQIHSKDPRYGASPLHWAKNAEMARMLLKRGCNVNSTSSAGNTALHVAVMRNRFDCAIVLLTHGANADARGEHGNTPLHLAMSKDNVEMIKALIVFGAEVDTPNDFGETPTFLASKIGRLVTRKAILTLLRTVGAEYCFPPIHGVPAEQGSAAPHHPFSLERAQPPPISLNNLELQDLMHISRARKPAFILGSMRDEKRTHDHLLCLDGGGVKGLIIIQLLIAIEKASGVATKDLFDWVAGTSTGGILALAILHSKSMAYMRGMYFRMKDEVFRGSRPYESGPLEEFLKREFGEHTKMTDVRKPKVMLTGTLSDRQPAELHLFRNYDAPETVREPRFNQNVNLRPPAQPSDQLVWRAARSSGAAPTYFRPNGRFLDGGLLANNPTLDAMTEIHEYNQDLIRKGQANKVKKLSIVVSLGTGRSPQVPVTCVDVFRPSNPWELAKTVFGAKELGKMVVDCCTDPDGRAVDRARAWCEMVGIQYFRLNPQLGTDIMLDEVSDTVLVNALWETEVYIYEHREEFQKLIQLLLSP

Compound | inhibition of measured iPLA2 activity in 3T3-L1 adipocyte homogenate (iPLA2) | selectivity for iPLA2γ (iPLA2γ) | adipocyte differentiation (TAG accumulation) with BEL (3T3-L1 cells) | selectivity for iPLA2β in comparison to iPLA2γ (iPLA2β)
O=C1O/C(=C/Br)CCC1c1cccc2ccccc12 (racemic) [racemic BEL] | inhibited | – | – | –
O=C1O/C(=C/Br)CC[C@@H]1c1cccc2ccccc12 [(R)-BEL] | inhibited to similar levels | approximately an order of magnitude | substantially decreased | –
O=C1O/C(=C/Br)CC[C@H]1c1cccc2ccccc12 [(S)-BEL] | inhibited to similar levels | – | substantially decreased | approximately one order of magnitude
